Test system: S. aureus
Experiment: Inhibition in RP 340 polypropylene copolymer after aging in UV chamber
Type: cell-based
Settings: after 120 h of aging in UV chamber

Structure (SMILES): Oc1cc(Cl)ccc1Oc1ccc(Cl)cc1Cl [triclosan]
- After 120 h of aging Inhibition %.: starts decreasing its antimicrobial effectiveness
